Values quoted from earlier work, collected in US20070292393A1, “USE OF THYMOSIN ALPHA 1 FOR PREPARING A MEDICAMENT FOR THE TREATMENT OF STAGE IV MALIGNANT MELANOMA” (SIGMA-TAU INDUSTRIE FARMACEUTICHE RIUNITE S.P.A., priority 2006, published 2007).

Tested on: metastatic melanoma

In the case of `CN(C)/N=N/c1[nH]cnc1C(N)=O` [DTIC, Dacarbazine], the “effect of responses on patients' overall survival” value is given as “no evidence”, the “actual overall responses to DTIC” value (recent publications (J Clin Oncol, ASCO 2004)) is given as 5.5-6.8% and the duration of responses (responses short-lived) is given as “three to six”.
